# Molecular target: Tryptase (Homo sapiens, UniProt Q9BZJ3+Q15661+Q9NRR2)
# Assay: Compound was tested for inhibition of human mast cell tryptase
# Type: protein assay
row,Structure (SMILES),IC50 [nM]
1,O=C(CCCC(=O)OCN1C(=O)c2ccccc2S1(=O)=O)NCc1ccc(Cl)c(Cl)c1,230
2,COc1ccc(CNC(=O)CCCC(=O)OCN2C(=O)c3ccccc3S2(=O)=O)cc1,430
